Like-named read-outs stand apart in the source and are kept apart here.

Series [1] in a line: Log P by HPLC on reversed phase columns, method [a] (EEC directive 79/831 Annex V.A8). Type of series: physicochemical. Conditions: reversed phase HPLC column, read-out: logP. An outline of the steps: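 Reversed-phase HPLC with LC-UV detection per EEC directive 79/831 Annex V.A8, acidic eluent of 0.1% formic acid in water and acetonitrile, linear gradient 10% to 95% acetonitrile. Log P derived from retention times, calibrated against straight-chain alkan-2-ones (C3–C16) by linear interpolation.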

A further series deals with Puccinia recondita. In words: Example D: in vivo preventive test (brown rust on wheat). The settings on record: 264 h, 500 ppm of tested compound, preventive spray, evaluated 11 days after inoculation, read-out: efficacy. As for the experimental part: Solvent: 5% by volume of dimethyl sulfoxide • 10% by volume of acetone Emulsifier: 1 μL of Tween® 80 per mg of active ingredient The tested compounds were made soluble and homogenized in a mixture of dimethyl sulfoxide/acetone/Tween® 80 and then diluted in water to the desired concentration. The young plants of wheat were treated by spraying the tested compound prepared as described above. Control plants were treated only with an aqueous solution of acetone/dimethyl sulfoxide/Tween® 80. After 24 hours, the plants were contaminated by spraying the leaves with an aqueous suspension of Puccinia recondita spores. The contaminated wheat plants were incubated for 24 hours at 20° C. and at 100% relative humidity and then for 10 days at 20° C. and at 70-80% relative humidity. The test was evaluated 11 days after the inoculation. 0% means an efficacy which corresponds to that of the control plants while an efficacy of 100% means that no disease was observed.

The next series concerns Phakopsora pachyrhizi. In words: Example F: in vivo preventive test (soybeans), DMSO/acetone/Tween 80. The settings on record: 288 h, 500 ppm of tested compound, preventive spray, soybean, evaluated 12 days after inoculation, read-out: efficacy. As for the experimental part:
Solvent: 5% by volume of dimethyl sulfoxide • 10% by volume of acetone
Emulsifier: 1 μL of Tween® 80 per mg of active ingredient
The tested compounds were made soluble and homogenized in a mixture of dimethyl sulfoxide/acetone/Tween® 80 and then diluted in water to the desired concentration.
The young plants of wheat were treated by spraying the tested compound prepared as described above. Control plants were treated only with an aqueous solution of acetone/dimethyl sulfoxide/Tween® 80.
After 24 hours, the plants were contaminated by spraying the leaves with an aqueous suspension of Phakospora pachyrhizi spores. The contaminated soybean plants were incubated for 24 hours at 24° C. and at 100% relative humidity and then for 11 days at 24° C. and at 70-80% relative humidity.
The test was evaluated 12 days after the inoculation. 0% means an efficacy which corresponds to that of the control plants while an efficacy of 100% means that no disease was observed.

The test system of another series is Alternaria brassicae. In words: Example E: in vivo preventive test (cabbage). The settings on record: 144 h, 500 ppm of tested compound, preventive spray, evaluated 6 days after inoculation, read-out: efficacy. As for the experimental part: Solvent: 5% by volume of dimethyl sulfoxide • 10% by volume of acetone Emulsifier: 1 μL of Tween® 80 per mg of active ingredient The tested compounds were made soluble and homogenized in a mixture of Dimethyl sulfoxide/Acetone/Tween® 80 and then diluted in water to the desired concentration. The young plants of cabbage were treated by spraying the tested compound prepared as described above. Control plants were treated only with an aqueous solution of Acetone/Dimethyl sulfoxide/Tween® 80. After 24 hours, the plants were contaminated by spraying the leaves with an aqueous suspension of Alternaria brassicae spores. The contaminated cabbage plants were incubated for 6 days at 20° C. and at 100% relative humidity. The test was evaluated 6 days after the inoculation. 0% means an efficacy which corresponds to that of the control plants while an efficacy of 100% means that no disease was observed.

Series [2] concerns Colletotrichum lindemuthianum. In words: Example B: in vitro cell test, spore germination and mycelium growth in liquid culture. Conditions: 144 h, 20 ppm of tested compound, 6 days incubation, read-out: efficacy (inhibition of fungal growth). In kind it is cell-based. As for the experimental part:
• Solvent: dimethyl sulfoxide Culture medium: 14.6 g anhydrous D-glucose (VWR), • 7.1 g mycological peptone (Oxoid), • 1.4 g granulated yeast extract (Merck), QSP 1 liter Inoculum: spore suspension The tested compounds were solubilized in dimethyl sulfoxide and the solution used to prepare the required range of concentrations. The final concentration of dimethyl sulfoxide used in the assay was ≤1%. A spore suspension of Colletotrichum lindemuthianum was prepared and diluted to the desired spore density. The compounds were evaluated for their ability to inhibit spore germination and mycelium growth in liquid culture assay. The compounds were added in the desired concentration to the culture medium with spores. After 6 days incubation, fungi-toxicity of compounds was determined by spectrometric measurement of mycelium growth. Inhibition of fungal growth was determined by comparing the absorbance values in wells containing the tested compounds with the absorbance in control wells without tested compounds.

[3] abbreviates: log P determined according to method [a] (HPLC on reversed phase columns).
Setting [4] is: method [a], HPLC on reversed phase columns.

For `CC(Oc1ncc(-c2nnc(C(F)F)o2)cn1)c1ccc(F)cc1` (racemic) [I.127, 5-[5-(difluoromethyl)-1,3,4-oxadiazol-2-yl]-2-{[(1RS)-1-(4-fluorophenyl)ethyl]oxy}pyrimidine], the chromatographic logP in series [1] (setting [3]) was determined as 3.13. In addition, the pest or weed control at 500 µg/mL was 70 to 79% with Puccinia recondita and 90 to 100% in the series with Phakopsora pachyrhizi.

As for `CON(c1ncc(-c2nnc(C(F)F)o2)cn1)C(C)c1ccccc1` (racemic) [I.147, N-{5-[5-(difluoromethyl)-1,3,4-oxadiazol-2-yl]pyrimidin-2-yl}-O-methyl-N-[(1RS)-1-phenylethyl]hydroxylamine], the chromatographic logP in series [1] (setting [3]) was found to be 3.37. Further, the pest or weed control at 500 µg/mL in the series on Alternaria brassicae lay in the range of 90 to 100%; in the series on Phakopsora pachyrhizi, 80 to 89%.

For the molecule `FC(F)c1nnc(-c2ccc(-n3ccnn3)cc2)o1` [I.005, 2-(difluoromethyl)-5-[4-(1H-1,2,3-triazol-1-yl)phenyl]-1,3,4-oxadiazole], in the series with Alternaria brassicae, the pest or weed control at 500 µg/mL fell in the range of 90 to 100%.

As for `FC(F)c1nnc(-c2ccc(-c3ccccc3)cc2)o1` [I.007, 2-([biphenyl]-4-yl)-5-(difluoromethyl)-1,3,4-oxadiazole], in the series with Alternaria brassicae, the pest or weed control at 500 µg/mL fell in the range of 80 to 89%.

Take `FC(F)c1nnc(-c2ccc(Cn3ccnc3)cc2)o1` [I.010, 2-(difluoromethyl)-5-[4-(1H-imidazol-1-ylmethyl)phenyl]-1,3,4-oxadiazole]: the pest or weed control at 500 µg/mL in the series with Alternaria brassicae was in the range of 90 to 100%.

One may read the inhibition of growth as the percentage by which the read-out fell short of the control. For `FC(F)c1nnc(-c2ccc(Nc3ncccn3)cc2)o1` [I.013, N-{4-[5-(difluoromethyl)-1,3,4-oxadiazol-2-yl]phenyl}pyrimidin-2-amine], in series [2], the inhibition of growth at 20 µg/mL was 90 to 100%. Further, the pest or weed control at 500 µg/mL in the series on Alternaria brassicae was in the range of 90 to 100%.

As for `Fc1ccccc1Nc1ccc(-c2nnc(C(F)F)o2)cc1` [I.017, N-{4-[5-(difluoromethyl)-1,3,4-oxadiazol-2-yl]phenyl}-2-fluoroaniline], the inhibition of growth at 20 µg/mL in series [2] is 90 to 100%. In the series on Alternaria brassicae, the pest or weed control at 500 µg/mL fell in the range of 80 to 89%.

As to `CN(C(=O)c1ccc(-c2nnc(C(F)(F)F)o2)cc1)c1ccccc1` [I.026, N-methyl-N-phenyl-4-[5-(trifluoromethyl)-1,3,4-oxadiazol-2-yl]benzamide], the pest or weed control at 500 µg/mL in the series with Puccinia recondita lay within 80 to 89%.

Turning to `FC(F)c1nnc(-c2ccc(N3CCCCC3)nc2)o1` [I.040, 5-[5-(difluoromethyl)-1,3,4-oxadiazol-2-yl]-2-(piperidin-1-yl)pyridine], the pest or weed control at 500 µg/mL with Alternaria brassicae lay within 70 to 79%.

Take `COCCNc1ncc(-c2nnc(C(F)F)o2)cn1` [I.068, 5-[5-(difluoromethyl)-1,3,4-oxadiazol-2-yl]-N-(2-methoxyethyl)pyrimidin-2-amine]: in series [2], the inhibition of growth at 20 µg/mL fell in the range of 90 to 100%. In addition, the pest or weed control at 500 µg/mL in the series on Alternaria brassicae lay within 70 to 79%.

Turning to `FC(F)c1nnc(-c2cnc(-c3ccsc3)nc2)o1` [I.072, 5-[5-(difluoromethyl)-1,3,4-oxadiazol-2-yl]-2-(3-thienyl)pyrimidine], the pest or weed control at 500 µg/mL in the series with Alternaria brassicae lay within 70 to 79%.

Regarding `CN(c1ccccc1)c1ncc(-c2nnc(C(F)F)o2)cn1` [I.087, 5-[5-(difluoromethyl)-1,3,4-oxadiazol-2-yl]-N-methyl-N-phenylpyrimidin-2-amine], in the series on Alternaria brassicae, the pest or weed control at 500 µg/mL lay within 90 to 100%.

For the molecule `Fc1ccccc1Nc1ncc(-c2nnc(C(F)F)o2)cn1` [I.093, 5-[5-(difluoromethyl)-1,3,4-oxadiazol-2-yl]-N-(2-fluorophenyl)pyrimidin-2-amine], the pest or weed control at 500 µg/mL in the series with Puccinia recondita and in the series with Phakopsora pachyrhizi was 90 to 100% each time.

Take `Fc1cccc(Nc2ncc(-c3nnc(C(F)F)o3)cn2)c1` [I.094, 5-[5-(difluoromethyl)-1,3,4-oxadiazol-2-yl]-N-(3-fluorophenyl)pyrimidin-2-amine]: the pest or weed control at 500 µg/mL in the series on Alternaria brassicae lay in the range of 90 to 100%.

Turning to `FC(F)c1nnc(-c2cnc(NCC3CCOCC3)nc2)o1` [I.105, 5-[5-(difluoromethyl)-1,3,4-oxadiazol-2-yl]-N-(tetrahydro-2H-pyran-4-ylmethyl)pyrimidin-2-amine], the chromatographic logP in series [1] (setting [3]) was determined as 1.73. Also, the pest or weed control at 500 µg/mL in the series on Alternaria brassicae lay within 80 to 89%.

For the molecule `CN(Nc1ncc(-c2nnc(C(F)F)o2)cn1)c1ccccc1` [I.108, 5-[5-(difluoromethyl)-1,3,4-oxadiazol-2-yl]-2-(2-methyl-2-phenylhydrazino)pyrimidine], in series [1] (setting [3]), the chromatographic logP was 2.23. In addition, the pest or weed control at 500 µg/mL in the series with Puccinia recondita is 70 to 79%.

Consider `ON(Cc1ccccc1)c1ncc(-c2nnc(C(F)F)o2)cn1` [I.110, N-benzyl-5-[5-(difluoromethyl)-1,3,4-oxadiazol-2-yl]-N-hydroxypyrimidin-2-amine], for which the chromatographic logP in series [1] (setting [3]) worked out at 2.23. Further, the inhibition of growth at 20 µg/mL in series [2] was 90 to 100%. The pest or weed control at 500 µg/mL in the series on Alternaria brassicae and in the series on Phakopsora pachyrhizi was 90 to 100% in each case.

For `FC(F)c1nnc(-c2cnc(NC3(c4ccccn4)CC3)nc2)o1` [I.121, 5-[5-(difluoromethyl)-1,3,4-oxadiazol-2-yl]-N-[1-(pyridin-2-yl)cyclopropyl]pyrimidin-2-amine], the chromatographic logP in series [1] (setting [3]) came to 0.93. In addition, the values for the pest or weed control at 500 µg/mL in the series on Puccinia recondita and in the series with Phakopsora pachyrhizi were 70 to 79% and 90 to 100%, respectively.

On to `Fc1ccccc1Nc1ncc(-c2nnc(C(F)(F)Cl)o2)cn1` [I.131, 5-{5-[chloro(difluoro)methyl]-1,3,4-oxadiazol-2-yl}-N-(2-fluorophenyl)pyrimidin-2-amine], for which, in series [1] (setting [3]), the chromatographic logP amounted to 3.26. The inhibition of growth at 20 µg/mL in series [2] was 90 to 100%. Moreover, the pest or weed control at 500 µg/mL in the series with Alternaria brassicae is 90 to 100%.

Regarding `COc1ccccc1C1(Nc2ncc(-c3nnc(C(F)F)o3)cn2)CC1` [I.155, 5-[5-(difluoromethyl)-1,3,4-oxadiazol-2-yl]-N-[1-(2-methoxyphenyl)cyclopropyl]pyrimidin-2-amine], the chromatographic logP in series [1] (setting [3]) was determined as 3.06. For the same molecule, the pest or weed control at 500 µg/mL with Puccinia recondita lay in the range of 80 to 89%; with Phakopsora pachyrhizi, 90 to 100%.

For the molecule `Fc1ccccc1C1(Nc2ncc(-c3nnc(C(F)F)o3)cn2)CCCC1` [I.171, 5-[5-(difluoromethyl)-1,3,4-oxadiazol-2-yl]-N-[1-(2-fluorophenyl)cyclopentyl]pyrimidin-2-amine], the chromatographic logP in series [1] (setting [4]) came to 3.74. In addition, the inhibition of growth at 20 µg/mL in series [2] was 70 to 79%. The pest or weed control at 500 µg/mL with Alternaria brassicae fell in the range of 80 to 89%; with Phakopsora pachyrhizi it was 70 to 79%.

Regarding `Fc1cccc(C2(Nc3ncc(-c4nnc(C(F)F)o4)cn3)CCCC2)c1` [I.172, 5-[5-(difluoromethyl)-1,3,4-oxadiazol-2-yl]-N-[1-(3-fluorophenyl)cyclopentyl]pyrimidin-2-amine], in series [1] (setting [4]), the chromatographic logP was determined as 3.6. In addition, the inhibition of growth at 20 µg/mL in series [2] fell in the range of 70 to 79%. The pest or weed control at 500 µg/mL in the series on Alternaria brassicae was 80 to 89%.

Consider `COC(=O)c1ccc(C2(Nc3ncc(-c4nnc(C(F)F)o4)cn3)CC2)cc1` [I.180, methyl 4-[1-({5-[5-(difluoromethyl)-1,3,4-oxadiazol-2-yl]pyrimidin-2-yl}amino)cyclopropyl]benzoate], for which, in series [1] (setting [4]), the chromatographic logP worked out at 2.51. The pest or weed control at 500 µg/mL with Puccinia recondita lay in the range of 70 to 79%.

Values taken from patent publication US20220144815A1, “1,3,4-OXADIAZOLES AND THEIR DERIVATIVES AS NEW ANTIFUNGAL AGENTS” (Bayer Aktiengesellschaft, priority 2018, published 2022).
